# Data reported in paper PMC11677424, “Early-Stage IM Treatment with the Host-Derived Immunostimulant CPDI-02 Increases Curative Protection of Healthy Outbred Mice Against Subcutaneous Infection with Community-Acquired Methicillin-Resistant Staphylococcus aureus USA300” (Pharmaceutics, 2024).
# Assays:
# CA-MRSA USA300 = conditions: cited from earlier work
# Description: Consistent with protection, SQ treatment with CPDI-02 increased local levels of IL-1β, IL-6, and CXCL1 and NP recruitment to the abscess. In contrast, SQ treatment of C5aR1 knockout mice with CDPI-02 had no effect against SQ infection with CA-MRSA up to ...
# [1] = system: healthy male and female outbred CD-1 mice; assay: IM dose escalation in healthy CD-1 mice; format: in vivo
# Method: Twenty-four CD-1 mice, approximately 4 weeks old, were randomized by weight and sex into four cohorts and then intramuscularly administered either vehicle alone (filter-sterilized 0.2 μm endotoxin-free PBS) or vehicle containing CPDI-02 twice a week over 4 weeks (eight doses total). CPDI-02 doses began at 15 mg/kg and subsequent doses were increased by a conventional modified Fibonacci scheme (increase over previous dose: 100%, 67%, 50%, 40%, 30%, 33%, 33%) to a final dose of 225 mg/kg. Mice were weighed prior to the study and prior to each dose administration. On each dose administration date, mice were assigned a Pain and Distress Assessment Score (Table S1). Four days after the last treatment, mice were euthanized, whole blood was collected for complete blood count (CBC) with differential (VetScan® HM5 Hematology Analyzer), and the thymus, heart, lungs, brain, liver, spleen, kidneys, femur bone marrow, popliteal lymph nodes, Peyer’s patches, and injection site muscle (left caudal thigh muscle) were collected. Collected tissues were fixed in 10% formalin for 48 h and then embedded in paraffin. Before embedment in paraffin, femur bone marrow samples underwent decalcification by shaking in 10% formic acid for 8 h. Paraffin samples were cut into sections and underwent a Hematoxylin and Eosin (H&E) stain, then analyzed for signs of inflammation and other tissue abnormalities utilizing a Nikon Eclipse E600 at 40× magnification, and imaged using a Lumenera Infinity 2 Microscope Camera.
# [2] = Preliminary PK and distribution after IM or IV administration (LC-MS/MS); format: in vivo, female outbred CD-1 mice
# Method: Female outbred CD-1 mice (4-6 weeks old) were infected SQ with CA-MRSA, as described (Section 2.4). At 6 h post-infection, vehicle alone (PBS) or vehicle containing 12.5 mg CPDI-02/kg (IV) or 50 mg/kg (IM) and blood samples (50 µL) were collected from the submandibular vein (Medipoint Goldenrod Lancet, 5 mm) at 2, 4, 8, and 24 h post-treatment into EDTA-coated tubes containing 200 µL of acidified methanol (0.1% formic acid v/v), and immediately mixed by repeated inversion. Samples were pelleted (16,000 RCF) for 10 min, and supernatants were stored at −80 °C until analysis. At 24 h post-challenge, mice were euthanized, and rear flanks were disinfected with 70% ethanol. Abscesses (Section 2.5) and organs were excised, rinsed with deionized H2O, dried, and 50 mg sections were collected in 200 µL of acidified methanol, homogenized using a gentleMACS Dissociator (Miltenyi Biotec 130-093-235, Tokyo, Japan), and stored at −80 °C until analysis.
# Peptide quantitation was performed using a Waters ACQUITY UPLC system coupled to a Xevo TQ-XS Tandem Quadrupole Mass Spectrometer with electrospray ionization. […] The following MRM m/z values were monitored: 621.4 > 84 and 621.4 > 100 for the analyte and IS, respectively. Peptide concentrations were determined using analyte-to-IS peak area ratios. […]
# CA-MRSA USA300 LAC = assay: CA-MRSA burden of subcutaneous abscesses after single IM treatment; format: in vivo, Staphylococcus aureus; conditions: female CD-1 mice, single IM 50 mg/kg at 6 h post-challenge, Day 1 post-challenge
# Method: At 24 h post-challenge (Section 2.4: single IM treatment), mice were euthanized (n = 5 per cohort) and rear flanks were disinfected with 70% EtOH. Abscess and skin biopsies (Tru-Punch Sterile Disposable Biopsy Punch Razors, 8 mm^2, Sklar instruments 961130) were suspended in TSB [2 mL] and homogenized in C tubes (Miltenyi Biotec 130-093-237, Bergisch Gladbach, DE) using a gentleMACS Dissociator (Miltenyi Biotec 130-093-235, program B). Homogenized abscess tissues were serially diluted in PBS and plated on TSA plates and incubated at 37 °C for 24 h, and bacterial colonies were counted. Bacterial colony counts per abscess were normalized to starting tissue weights and compared using a Mann–Whitney test (nonparametric t-test). Sections of paraffin-embedded tissues collected above were also Gram-stained and analyzed on a Nikon Eclipse E600 (Minato City, Japan) at 200× magnification and imaged using a Lumenera Infinity 2 Microscope Camera (Ottawa, ON, Canada).
smiles,measurement,setting,value
CSCC[C@H](NC(=O)[C@H](CC(=O)O)NC(=O)[C@H](CCCCN)NC(=O)[C@H](Cc1ccccc1)NC(=O)[C@H](CO)NC(=O)[C@@H](N)Cc1ccc(O)cc1)C(=O)N1CCC[C@H]1C(=O)N(C)[C@@H](CC(C)C)C(=O)N[C@H](C)C(=O)N[C@@H](CCCNC(=N)N)C(=O)O [CPDI-02],effect against SQ infection with CA-MRSA vs inactive scCPDI-02,"CA-MRSA USA300; C5aR1 knockout mice, SQ treatment, up to 48 h post-challenge",no effect
same,"local levels of IL-1β, IL-6 and CXCL1 and NP recruitment to the abscess","CA-MRSA USA300; outbred mice, prophylactic SQ treatment",increased
same,"maximum abscess surface area, CA-MRSA load per gram of tissue and time to abscess resolution vs inactive scCPDI-02","CA-MRSA USA300; outbred mice, repeat SQ treatment before and after SQ challenge, three injections total, 12.5 mg/kg",significantly decreased
same,weight gain or survival,"[1]; male and female CD-1 mice, IM twice a week, 15 up to 225 mg/kg over 28 days, 8 doses, n = 6",did not affect
same,mice with signs of inflammation around the injection site,"[1]; male mice, four days after final dose, H&E, vehicle none",50%
same,mice with signs of inflammation around the injection site,"[1]; mouse, in vivo",83%
same,"signs of inflammation in thymus, heart, lungs, brain, liver, spleen, kidneys, femur bone marrow, popliteal lymph nodes, Peyer's patches","[1]; mouse, in vivo",did not increase
same,platecrit vs vehicle alone,"[1]; mouse, in vivo, 225 mg/kg",decreased
same,platelets vs vehicle alone,"[1]; mouse, in vivo, 225 mg/kg",decreased
same,"relative distribution to heart, lungs, liver, kidneys, spleen or brain, IM vs IV","[2]; IM 50 mg/kg vs IV 12.5 mg/kg, 18 h post-treatment, n = 3 to 5",no effect
same,plasma concentrations after IM vs IV administration,"[2]; abscess-bearing female CD-1 mice, IM 50 mg/kg vs IV 12.5 mg/kg at 6 h post-challenge, 2, 4, 8, 24 h post-treatment, n = 5",increased
same,detectable CA-MRSA in subcutaneous abscesses (Gram staining) vs vehicle,CA-MRSA USA300 LAC; histochemistry,qualitatively decreased
same,CA-MRSA CFU/g of abscess tissue,"CA-MRSA USA300 LAC; mean ± SD, vehicle 3 × 10^6 ± 2 × 10^6, SD",1.8 × 10^6 ± 0.8 × 10^6 CFU/g of abscess tissue
